In patent publication US9512126B2, “Substituted imidazopyridazines” (Bayer Intellectual Property GmbH, priority 2012, dated 2016):

Assays:
[1] = target: human kinase Mps-1 (Homo sapiens (Human), UniProt P33981); assay: Mps-1 kinase assay (TR-FRET); format: biochemical; details: N-terminally GST-tagged human full length recombinant Mps-1, 10 μM ATP
Procedure: The human kinase Mps-1 phosphorylates a biotinylated substrate peptide. Detection of the phosphorylated product is achieved by time-resolved fluorescence resonance energy transfer (TR-FRET) from Europium-labelled anti-phospho-Serine/Threonine antibody as donor to streptavidin labelled with cross-linked allophycocyanin (SA-XLent) as acceptor. Compounds are tested for their inhibition of the kinase activity.
N-terminally GST-tagged human full length recombinant Mps-1 kinase (purchased from Invitrogen, Karslruhe, Germany, cat. no PV4071) was used. As substrate for the kinase reaction a biotinylated peptide of the amino-acid sequence […] (C-terminus in amide form, purchased from Biosynthan GmbH, Berlin) was used.
The concentration of Mps-1 in the assay was adjusted to the activity of the enzyme lot and was chosen appropriate to have the assay in the linear range, typical enzyme concentrations were in the range of about 1 nM (final conc. in the 5 μl assay volume).
The resulting mixture was incubated 1 h at 22° C. to allow the binding of the phosphorylated peptide to the anti-phospho(Ser/Thr)-Europium-antibody. Subsequently the amount of phosphorylated substrate was evaluated by measurement of the resonance energy transfer from the Europium-labelled anti-phospho(Ser/Thr) antibody to the Streptavidin-XLent.

[2] = In vitro metabolic stability in rat hepatocytes (including calculation of hepatic in vivo blood clearance); format: in vitro ADME; details: Han Wistar, hepatocytes (freshly isolated, suspension), read-out: CL (hepatic in vivo blood clearance) (converted)
Procedure: Investigation of In Vitro Metabolic Stability in Rat Hepatocytes (Including Calculation of Hepatic In Vivo Blood Clearance (CL))
Hepatocytes from Han Wistar rats were isolated via a 2-step perfusion method. After perfusion, the liver was carefully removed from the rat: the liver capsule was opened and the hepatocytes were gently shaken out into a Petri dish with ice-cold WME. The resulting cell suspension was filtered through sterile gaze in 50 ml falcon tubes and centrifuged at 50×g for 3 min at room temperature. The cell pellet was resuspended in 30 ml WME and centrifuged through a Percoll® gradient for 2 times at 100×g. The hepatocytes were washed again with Williams' medium E (WME) and resuspended in medium containing 5% FCS. Cell viability was determined by trypan blue exclusion.
For the metabolic stability assay liver cells were distributed in WME containing 5% FCS to glass vials at a density of 1.0×10^6 vital cells/ml. The test compound was added to a final concentration of 1 μM. During incubation, the hepatocyte suspensions were continuously shaken and aliquots were taken at 2, 8, 16, 30, 45 and 90 min, to which equal volumes of cold methanol were immediately added.
Samples were frozen at −20° C. over night, after subsequently centrifuged for 15 minutes at 3000 rpm and the supernatant was analyzed with an Agilent 1200 HPLC-system with LCMS/MS detection.
The half-life of a test compound was determined from the concentration-time plot. From the half-life the intrinsic clearances were calculated. Together with the additional parameters liver blood flow, amount of liver cells in vivo and in vitro. The hepatic in vivo blood clearance (CL) and the maximal oral bioavailability (Fmax) was calculated. The following parameter values were used: Liver blood flow—4.2 L/h/kg rat; specific liver weight—32 g/kg rat body weight; liver cells in vivo—1.1×10^8 cells/g liver, liver cells in vitro—0.5×10^6 ml.

human kinase Mps-1, sequence (P33981 whole entry): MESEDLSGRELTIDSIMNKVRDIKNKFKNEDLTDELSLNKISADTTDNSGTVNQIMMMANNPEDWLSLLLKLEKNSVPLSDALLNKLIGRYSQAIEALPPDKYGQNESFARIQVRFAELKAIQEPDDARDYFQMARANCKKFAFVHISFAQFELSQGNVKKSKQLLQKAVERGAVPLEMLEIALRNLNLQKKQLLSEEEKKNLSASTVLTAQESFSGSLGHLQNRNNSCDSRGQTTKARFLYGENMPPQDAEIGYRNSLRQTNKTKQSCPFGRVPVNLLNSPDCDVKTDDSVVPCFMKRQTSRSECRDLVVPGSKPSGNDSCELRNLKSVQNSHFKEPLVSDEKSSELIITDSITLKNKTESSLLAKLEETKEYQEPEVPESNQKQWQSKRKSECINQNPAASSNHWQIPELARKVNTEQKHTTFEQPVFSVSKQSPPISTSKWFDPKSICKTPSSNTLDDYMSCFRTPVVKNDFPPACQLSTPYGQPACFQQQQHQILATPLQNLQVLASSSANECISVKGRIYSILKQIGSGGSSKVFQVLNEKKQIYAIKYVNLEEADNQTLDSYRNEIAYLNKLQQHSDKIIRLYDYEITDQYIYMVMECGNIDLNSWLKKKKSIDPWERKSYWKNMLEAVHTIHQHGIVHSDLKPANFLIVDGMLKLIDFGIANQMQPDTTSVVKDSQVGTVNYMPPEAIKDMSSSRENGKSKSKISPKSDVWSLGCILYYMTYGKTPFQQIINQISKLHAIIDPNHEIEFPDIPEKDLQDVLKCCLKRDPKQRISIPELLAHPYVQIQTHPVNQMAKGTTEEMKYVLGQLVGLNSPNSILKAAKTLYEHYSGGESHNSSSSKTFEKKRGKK

Cc1cc(-c2cnc3c(NCCC(F)(F)F)cc(C(F)(F)c4cccc(F)c4)nn23)ccc1C(=O)NC1CC1 [Example 6, N-Cyclopropyl-4-{6-[difluoro(3-fluorophenyl)methyl]-8-[(3,3,3-trifluoropropyl)amino]imidazo[1,2-b]pyridazin-3-yl}-2-methylbenzamide]
IC50 [1]: 0.7 nM
CLhep predicted at 1 μM [2]: 21.7 mL/min/kg

Cc1cc(-c2cnc3c(NCCC(F)(F)F)cc(C4(c5cccc(F)c5)CC4)nn23)ccc1C(=O)NC1CC1 [Example 25, N-cyclopropyl-4-{6-[1-(3-fluorophenyl)cyclopropyl]-8-[(3,3,3-trifluoropropyl)amino]imidazo[1,2-b]pyridazin-3-yl}-2-methylbenzamide]
CLhep predicted at 1 μM [2]: 33.3 mL/min/kg
